This passage reports MIC results from ChEMBL document CHEMBL1142592, “Additional pyrrolomycins from cultures of Streptomyces fumanus” (2005).

The structures appear in SMILES notation. In brackets after ≈: the same amount, converted by molar mass. Some results are limits rather than exact numbers.

Common to all, as to type: functional
Assay [1] concerns Staphylococcus aureus. In words: Antimicrobial activity against wild type Staphylococcus aureus by agar dilution method. For orientation: In agar dilution, organisms are placed on agar that contains the substance at set levels.
Assay [2] relates to Staphylococcus aureus. In words: Antimicrobial activity against methicillin-resistant Staphylococcus aureus by agar dilution method.
Assay [3] has as its system Enterococcus faecium. In words: Antimicrobial activity against vancomycin-resistant Enterococcus faecium by agar dilution method.
In assay [4] the test system is Escherichia coli. The assay is described as follows: Antimicrobial activity against wild type Escherichia coli by agar dilution method.
Assay [5] deals with Escherichia coli. In words: Antimicrobial activity against permeability mutant Escherichia coli imp by agar dilution method.

As for `O=[N+]([O-])c1c([C@@H](O)c2cc(Cl)cc(Cl)c2O)[nH]c(Cl)c1Cl` [PYRROLOMYCIN G], the MIC in assay [1] is 8 µg/mL (≈ 21.5 µM); in assay [2], 8 µg/mL (≈ 21.5 µM); in assay [3], 8 µg/mL (≈ 21.5 µM); in assay [4], more than 128 µg/mL; in assay [5], 32 µg/mL (≈ 86 µM).

For `COc1c(Cl)cc(Cl)cc1[C@H](O)c1[nH]c(Cl)c(Cl)c1[N+](=O)[O-]` [PYRROLOMYCIN H], the MIC in assay [1] was 1 µg/mL (≈ 2.59 µM); in assay [2], 2 µg/mL (≈ 5.18 µM); in assay [4], 128 µg/mL (≈ 332 µM); in assay [5] it was 4 µg/mL (≈ 10.4 µM).

On to `COc1c(Cl)cc(Cl)cc1C(=O)c1[nH]c(Cl)c(Cl)c1Cl` [PYRROLOMYCIN J], for which the MIC was 1 µg/mL (≈ 2.68 µM) in assay [1], 2 µg/mL (≈ 5.36 µM) in assay [2], more than 128 µg/mL in assay [4] and 8 µg/mL (≈ 21.4 µM) in assay [5].

For orientation: MIC means the lowest concentration that inhibits growth of the organism. Read a low MIC as inhibition by little substance.
